This is an account of results in patent publication US10168342B2, “Lipid probes and uses thereof” (THE SCRIPPS RESEARCH INSTITUTE, priority 2015, dated 2019).

Like-named read-outs stand apart in the source and are kept apart here.

What all share (details): competitor 25 μM
In assay [1] the test system is AEA-DA lipid probe targets in Neuro2a cells.
Assay [2] concerns the target T1, AEA-DA lipid probe targets in Neuro2a cells (Mus musculus, UniProt O70252).
T1 sequence (O70252 1-315): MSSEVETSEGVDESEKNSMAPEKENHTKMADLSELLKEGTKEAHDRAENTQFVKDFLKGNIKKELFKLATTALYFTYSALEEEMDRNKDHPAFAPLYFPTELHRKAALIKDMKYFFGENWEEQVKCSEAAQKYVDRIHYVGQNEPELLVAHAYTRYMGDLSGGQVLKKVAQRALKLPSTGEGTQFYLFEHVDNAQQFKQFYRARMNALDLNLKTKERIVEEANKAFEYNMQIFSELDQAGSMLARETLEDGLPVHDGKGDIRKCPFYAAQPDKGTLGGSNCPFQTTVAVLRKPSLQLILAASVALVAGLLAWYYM

For assay [3], the target named is T2, AEA-DA lipid probe targets in Neuro2a cells (Mus musculus, UniProt Q8CAQ8).
T2 sequence (Q8CAQ8 34-757): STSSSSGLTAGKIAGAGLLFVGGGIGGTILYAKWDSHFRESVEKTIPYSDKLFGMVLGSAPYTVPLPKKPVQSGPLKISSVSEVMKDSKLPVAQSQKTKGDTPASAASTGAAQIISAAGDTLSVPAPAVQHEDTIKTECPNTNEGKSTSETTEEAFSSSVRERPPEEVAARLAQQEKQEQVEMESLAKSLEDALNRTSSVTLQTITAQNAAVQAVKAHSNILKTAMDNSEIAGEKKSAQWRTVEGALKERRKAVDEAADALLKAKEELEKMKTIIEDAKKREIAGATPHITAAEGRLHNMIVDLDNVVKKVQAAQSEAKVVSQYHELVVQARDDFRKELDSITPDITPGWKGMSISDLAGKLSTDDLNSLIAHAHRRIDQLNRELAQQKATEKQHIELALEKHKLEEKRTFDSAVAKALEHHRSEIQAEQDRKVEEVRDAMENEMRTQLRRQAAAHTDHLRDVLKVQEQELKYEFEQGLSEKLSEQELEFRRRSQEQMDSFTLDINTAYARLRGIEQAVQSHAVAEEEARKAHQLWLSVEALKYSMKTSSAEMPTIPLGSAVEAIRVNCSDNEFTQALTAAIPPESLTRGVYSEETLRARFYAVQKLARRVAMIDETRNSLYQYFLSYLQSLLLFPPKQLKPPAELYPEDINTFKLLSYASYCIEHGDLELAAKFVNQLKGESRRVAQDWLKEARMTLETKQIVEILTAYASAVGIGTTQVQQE

Assay [4] concerns the target AEA-DA lipid probe targets in Neuro2a cells (Mus musculus, UniProt P15331).
Assay [5] has as its target T3, AEA-DA lipid probe targets in Neuro2a cells (Mus musculus, UniProt Q91X78).
T3 sequence (Q91X78 1-348): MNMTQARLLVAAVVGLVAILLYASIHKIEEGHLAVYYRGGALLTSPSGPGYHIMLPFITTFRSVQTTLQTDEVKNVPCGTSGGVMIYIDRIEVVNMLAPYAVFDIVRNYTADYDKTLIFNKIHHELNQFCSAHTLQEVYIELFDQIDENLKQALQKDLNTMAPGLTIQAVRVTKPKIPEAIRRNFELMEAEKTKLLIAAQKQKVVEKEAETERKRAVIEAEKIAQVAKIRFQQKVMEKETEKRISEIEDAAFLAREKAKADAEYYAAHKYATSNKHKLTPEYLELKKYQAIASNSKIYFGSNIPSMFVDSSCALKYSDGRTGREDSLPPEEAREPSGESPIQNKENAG

Assay [6] has as its target T4, AEA-DA lipid probe targets in Neuro2a cells (Mus musculus, UniProt Q922Q8).
T4 sequence (Q922Q8 1-307): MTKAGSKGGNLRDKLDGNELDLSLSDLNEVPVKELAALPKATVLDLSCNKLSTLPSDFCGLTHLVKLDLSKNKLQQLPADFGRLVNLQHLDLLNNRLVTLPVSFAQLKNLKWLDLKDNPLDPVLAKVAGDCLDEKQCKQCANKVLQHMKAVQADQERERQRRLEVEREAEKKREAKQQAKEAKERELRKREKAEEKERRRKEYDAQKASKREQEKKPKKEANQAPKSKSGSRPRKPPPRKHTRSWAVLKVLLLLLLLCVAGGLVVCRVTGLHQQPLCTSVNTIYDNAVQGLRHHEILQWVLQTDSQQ

Assay [7] has as its target T5, AEA-DA lipid probe targets in Neuro2a cells (Mus musculus, UniProt Q8C7K6).
T5 sequence (Q8C7K6 23-495): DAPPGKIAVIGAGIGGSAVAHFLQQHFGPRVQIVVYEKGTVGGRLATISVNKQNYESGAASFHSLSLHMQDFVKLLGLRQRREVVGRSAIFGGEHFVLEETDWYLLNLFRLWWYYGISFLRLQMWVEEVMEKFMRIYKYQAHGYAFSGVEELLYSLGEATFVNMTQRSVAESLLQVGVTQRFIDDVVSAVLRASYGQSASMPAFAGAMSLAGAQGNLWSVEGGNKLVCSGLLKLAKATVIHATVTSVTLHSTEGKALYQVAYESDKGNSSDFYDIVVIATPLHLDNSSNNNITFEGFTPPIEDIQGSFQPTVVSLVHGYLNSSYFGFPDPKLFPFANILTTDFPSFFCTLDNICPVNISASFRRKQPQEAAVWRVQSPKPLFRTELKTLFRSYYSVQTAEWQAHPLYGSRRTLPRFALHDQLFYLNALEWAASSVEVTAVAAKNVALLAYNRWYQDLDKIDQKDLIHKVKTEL

Assay [8] concerns the target AEA-DA lipid probe targets in Neuro2a cells (Mus musculus, UniProt Q8JZU2).

Sequence of AEA-DA lipid probe targets in Neuro2a cells (Mus musculus, UniProt Q8JZU2) (Q8JZU2 14-311): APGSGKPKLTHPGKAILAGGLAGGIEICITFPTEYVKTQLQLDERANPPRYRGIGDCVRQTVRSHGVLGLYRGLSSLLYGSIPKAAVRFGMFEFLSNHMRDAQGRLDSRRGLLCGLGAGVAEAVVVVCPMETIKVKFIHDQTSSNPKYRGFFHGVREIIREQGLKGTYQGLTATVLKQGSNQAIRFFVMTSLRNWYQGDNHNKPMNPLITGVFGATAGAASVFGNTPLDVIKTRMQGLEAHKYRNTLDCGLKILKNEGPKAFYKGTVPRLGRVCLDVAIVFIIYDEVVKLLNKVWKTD
Sequence of AEA-DA lipid probe targets in Neuro2a cells (Mus musculus, UniProt P15331) (P15331 whole entry): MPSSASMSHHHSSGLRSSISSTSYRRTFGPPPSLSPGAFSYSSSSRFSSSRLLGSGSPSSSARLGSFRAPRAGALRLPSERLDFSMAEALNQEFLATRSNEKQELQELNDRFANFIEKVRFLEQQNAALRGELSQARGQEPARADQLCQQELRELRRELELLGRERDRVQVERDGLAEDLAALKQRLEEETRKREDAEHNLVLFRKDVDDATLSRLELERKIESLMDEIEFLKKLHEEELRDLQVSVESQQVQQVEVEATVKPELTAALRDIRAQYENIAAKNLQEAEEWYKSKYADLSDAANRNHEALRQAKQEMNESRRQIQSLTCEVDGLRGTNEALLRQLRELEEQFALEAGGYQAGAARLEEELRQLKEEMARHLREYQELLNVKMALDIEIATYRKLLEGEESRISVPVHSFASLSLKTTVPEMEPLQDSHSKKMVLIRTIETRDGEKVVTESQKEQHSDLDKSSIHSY

Consider `C=CCN(C)CCCCCCOc1ccc(C(=O)c2ccc(Br)cc2)c(F)c1` [Ro 48-8071, reference compound], for which the “SILAC ratio, GM20425 (E9Q035)” value in assay [1] (Neuro2a cells, AEA-DA probe) is reported as 1.2. Besides, in assay [1], the “SILAC ratio Akr1c12” value worked out at 0.9, the “SILAC ratio H2-K1” value is 0.9, the “SILAC ratio Nup205” value was 0.9 and the “SILAC ratio Uncharacterized” value came to 1.0. For the same compound, in assay [1], the “SILAC ratio, Gm20425” value came to 1.2 and the “SILAC ratio, Gm20671” value is 1.3. Besides, the “SILAC ratio, Tmpo” value in assay [1] (first Tmpo line (r51)) worked out at 1.2. Moreover, the “SILAC ratio, Tmpo” value in assay [1] (second Tmpo line (r55)) stood at 1.2. The “SILAC ratio, HMOX2 (P30519)” value in assay [2] (Neuro2a cells, AEA-DA probe) was 1.3. The “SILAC ratio, Hmox2” value in assay [2] is listed as 1.3. Besides, the “SILAC ratio Immt” value in assay [3] is listed as 1.0. Moreover, the “SILAC ratio Prph” value in assay [4] worked out at 0.8. Further, the “SILAC ratio Erlin1” value in assay [5] is given as 1.2. The “SILAC ratio Lrrc59” value in assay [6] came to 1.2. The “SILAC ratio Pcyox11” value in assay [7] was determined as 1.0. In assay [8], the “SILAC ratio Slc25a1” value is 1.0.
